This note sets out measurements from patent publication US20250171426A1, “PYRIMIDINEDIONE-BASED COMPOUNDS AS AXL, C-MET, AND MER INHIBITORS AND METHODS OF USE THEREOF” (CMG Pharmaceutical Co., Ltd., priority 2022, published 2025).

Common to all, as to assay type: biochemical
Common to all, as to conditions: 10 μM ATP, 60 min, ADP-GLO luminescence

One assay has as its target c-MET (Homo sapiens, UniProt P08581). The assay can be described thus: Enzymatic assay (ADP-Glo kinase reaction), c-MET. A digest of the protocol: (§1)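 For both AXL and c-MET, reactions in tyrosine kinase buffer used 0.2 μg/μL poly(Glu4,Tyr1) and 10 μM ATP with serially diluted inhibitor, 60 min at room temperature. ADP formed was read by ADP-Glo luminescence after 40 min reagent incubation.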
A general note: ADP-Glo first removes unused ATP, then detects ADP through luciferase.

The next assay concerns the target T1, AXL (Homo sapiens, UniProt P30530).
T1 sequence (P30530 26-894): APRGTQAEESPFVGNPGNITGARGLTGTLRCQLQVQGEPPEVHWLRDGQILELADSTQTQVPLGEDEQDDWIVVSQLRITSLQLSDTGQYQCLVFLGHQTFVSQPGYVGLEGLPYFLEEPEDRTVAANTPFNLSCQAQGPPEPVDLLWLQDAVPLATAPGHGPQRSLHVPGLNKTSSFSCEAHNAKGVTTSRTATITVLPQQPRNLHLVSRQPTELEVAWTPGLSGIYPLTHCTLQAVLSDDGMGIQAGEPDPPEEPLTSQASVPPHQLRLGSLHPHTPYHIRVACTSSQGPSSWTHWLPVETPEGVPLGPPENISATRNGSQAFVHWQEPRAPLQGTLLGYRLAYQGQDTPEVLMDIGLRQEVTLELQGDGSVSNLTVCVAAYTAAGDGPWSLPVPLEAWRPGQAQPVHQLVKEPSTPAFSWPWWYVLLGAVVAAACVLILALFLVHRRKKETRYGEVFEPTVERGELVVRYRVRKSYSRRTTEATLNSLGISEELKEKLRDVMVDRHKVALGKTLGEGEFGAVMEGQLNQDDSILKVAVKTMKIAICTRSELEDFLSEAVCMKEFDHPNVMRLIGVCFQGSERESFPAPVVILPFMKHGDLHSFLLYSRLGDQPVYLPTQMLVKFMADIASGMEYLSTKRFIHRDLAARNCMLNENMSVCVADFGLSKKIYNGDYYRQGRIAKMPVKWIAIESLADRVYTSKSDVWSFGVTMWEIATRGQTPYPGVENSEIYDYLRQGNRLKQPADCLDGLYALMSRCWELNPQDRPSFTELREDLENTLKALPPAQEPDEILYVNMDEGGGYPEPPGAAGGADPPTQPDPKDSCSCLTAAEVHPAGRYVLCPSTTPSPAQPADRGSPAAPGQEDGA
The assay can be described thus: Enzymatic assay (ADP-Glo kinase reaction), AXL. The method, boiled down: as §1

A further assay has as its target T2, MER (Homo sapiens, UniProt Q12866).
T2 sequence (Q12866 21-999): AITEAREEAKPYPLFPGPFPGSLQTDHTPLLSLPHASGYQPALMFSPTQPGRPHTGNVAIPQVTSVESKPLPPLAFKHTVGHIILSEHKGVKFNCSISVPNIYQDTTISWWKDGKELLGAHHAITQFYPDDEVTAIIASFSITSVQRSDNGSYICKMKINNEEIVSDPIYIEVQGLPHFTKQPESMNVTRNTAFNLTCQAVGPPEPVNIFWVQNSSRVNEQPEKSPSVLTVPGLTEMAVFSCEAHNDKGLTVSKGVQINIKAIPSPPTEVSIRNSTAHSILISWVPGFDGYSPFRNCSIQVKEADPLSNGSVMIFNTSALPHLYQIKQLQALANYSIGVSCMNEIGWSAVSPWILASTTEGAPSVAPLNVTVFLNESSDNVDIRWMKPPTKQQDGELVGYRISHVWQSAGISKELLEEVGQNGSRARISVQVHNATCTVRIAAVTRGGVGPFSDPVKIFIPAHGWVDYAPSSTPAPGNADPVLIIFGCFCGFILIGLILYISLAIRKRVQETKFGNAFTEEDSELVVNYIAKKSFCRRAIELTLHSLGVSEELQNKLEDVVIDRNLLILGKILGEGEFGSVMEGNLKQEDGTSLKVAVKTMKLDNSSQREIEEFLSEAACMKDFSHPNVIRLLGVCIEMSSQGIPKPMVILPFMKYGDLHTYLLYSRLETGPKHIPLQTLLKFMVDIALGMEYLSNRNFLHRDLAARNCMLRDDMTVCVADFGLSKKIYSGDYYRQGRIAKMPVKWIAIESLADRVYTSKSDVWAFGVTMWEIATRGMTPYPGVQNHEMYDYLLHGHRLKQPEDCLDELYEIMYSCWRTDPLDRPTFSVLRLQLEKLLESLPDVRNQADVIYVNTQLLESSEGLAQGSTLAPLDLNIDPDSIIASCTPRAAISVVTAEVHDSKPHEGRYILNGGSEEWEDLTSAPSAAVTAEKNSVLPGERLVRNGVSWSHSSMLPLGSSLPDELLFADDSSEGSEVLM
The assay can be described thus: Enzymatic assay (ADP-Glo kinase reaction), MER. The method, boiled down: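 ADP-Glo luminescence assay of MER in tyrosine kinase buffer with 0.2 μg/μL poly(Glu4,Tyr1) substrate and 10 μM ATP. Serially diluted inhibitor reacted 60 min at room temperature. IC50 taken from luminescence after ADP-Glo and detection steps.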

Structures are written as SMILES. Some results are limits rather than exact numbers.

Chain of c-MET (P08581 25-1390): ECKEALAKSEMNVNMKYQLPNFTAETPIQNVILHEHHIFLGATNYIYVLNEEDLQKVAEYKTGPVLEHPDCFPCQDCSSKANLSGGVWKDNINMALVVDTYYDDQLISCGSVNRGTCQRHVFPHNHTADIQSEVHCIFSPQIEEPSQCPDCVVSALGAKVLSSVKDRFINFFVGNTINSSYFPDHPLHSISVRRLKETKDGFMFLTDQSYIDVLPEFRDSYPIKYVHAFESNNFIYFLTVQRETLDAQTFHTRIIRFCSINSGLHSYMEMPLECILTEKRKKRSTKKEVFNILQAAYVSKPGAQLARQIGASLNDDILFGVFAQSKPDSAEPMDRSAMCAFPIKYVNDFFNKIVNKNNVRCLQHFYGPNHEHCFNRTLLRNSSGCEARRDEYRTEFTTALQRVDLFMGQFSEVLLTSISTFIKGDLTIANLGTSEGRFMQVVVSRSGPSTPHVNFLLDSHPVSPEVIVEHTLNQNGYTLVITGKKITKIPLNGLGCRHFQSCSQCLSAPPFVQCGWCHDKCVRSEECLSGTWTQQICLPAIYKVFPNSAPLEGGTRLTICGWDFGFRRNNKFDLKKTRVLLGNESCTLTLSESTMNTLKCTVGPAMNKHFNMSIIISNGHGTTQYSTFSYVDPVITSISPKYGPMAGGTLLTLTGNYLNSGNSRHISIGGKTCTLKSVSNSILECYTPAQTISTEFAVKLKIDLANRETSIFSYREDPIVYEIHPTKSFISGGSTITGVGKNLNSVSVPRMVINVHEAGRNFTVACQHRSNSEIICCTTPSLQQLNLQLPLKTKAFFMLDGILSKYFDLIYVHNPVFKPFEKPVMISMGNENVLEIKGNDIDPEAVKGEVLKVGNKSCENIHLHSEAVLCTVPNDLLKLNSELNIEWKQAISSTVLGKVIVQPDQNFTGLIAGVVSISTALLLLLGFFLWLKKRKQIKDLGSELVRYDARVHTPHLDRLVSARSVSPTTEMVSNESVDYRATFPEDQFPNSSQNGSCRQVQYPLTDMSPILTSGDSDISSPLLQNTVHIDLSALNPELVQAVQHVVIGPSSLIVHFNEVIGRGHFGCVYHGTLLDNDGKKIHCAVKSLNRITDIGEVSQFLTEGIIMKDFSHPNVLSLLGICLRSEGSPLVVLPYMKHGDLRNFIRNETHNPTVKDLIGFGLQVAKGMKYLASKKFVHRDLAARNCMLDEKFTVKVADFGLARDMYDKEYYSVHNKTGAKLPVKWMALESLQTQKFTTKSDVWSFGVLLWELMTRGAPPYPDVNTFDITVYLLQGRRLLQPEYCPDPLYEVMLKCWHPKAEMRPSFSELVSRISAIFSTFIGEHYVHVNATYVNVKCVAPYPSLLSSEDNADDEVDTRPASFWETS

Turning to `Nc1nccc(Oc2ccc(NC(=O)c3c[nH]c(=O)n(-c4ccc(F)cc4)c3=O)cc2F)c1C#CCC1CCNCC1` [Example 53, N-(4-(2-amino-3-(3-(piperidin-4-yl)prop-1-ynyl)pyridin-4-yloxy)-3-fluorophenyl)-3-(4-fluorophenyl)-2,4-dioxo-1,2,3,4-tetrahydropyrimidine-5-carboxamide], the IC50 against c-MET is less than 100 nM; against AXL, less than 10 nM; against MER it was less than 10 nM.

In the case of `CN1CCC(CC#Cc2c(Oc3ccc(NC(=O)c4c[nH]c(=O)n(-c5ccc(F)cc5)c4=O)cc3F)ccnc2N)CC1` [Example 54, N-(4-(2-amino-3-(3-(1-methylpiperidin-4-yl)prop-1-ynyl)pyridin-4-yloxy)-3-fluorophenyl)-3-(4-fluorophenyl)-2,4-dioxo-1,2,3,4-tetrahydropyrimidine-5-carboxamide], the half-maximal inhibitory concentration (IC50) is less than 10 nM at c-MET, less than 10 nM on AXL and less than 100 nM against MER.

Turning to `CC(C)(C#Cc1c(Oc2ccc(NC(=O)c3cn(C4CCOCC4)c(=O)n(-c4ccc(F)cc4)c3=O)cc2F)ccnc1N)N1CCOCC1` [Example 55, N-(4-(2-amino-3-(3-methyl-3-morpholinobut-1-ynyl)pyridin-4-yloxy)-3-fluorophenyl)-3-(4-fluorophenyl)-2,4-dioxo-1-(tetrahydro-2H-pyran-4-yl)-1,2,3,4-tetrahydropyrimidine-5-carboxamide], the IC50 at c-MET, against AXL and against MER was less than 100 nM each time.

Take `Nc1nccc(Oc2ccc(NC(=O)c3cn(C4CCOCC4)c(=O)n(-c4ccc(F)cc4)c3=O)cc2F)c1C#CCN1CCOCC1` [Example 56, N-(4-(2-amino-3-(3-morpholinoprop-1-ynyl)pyridin-4-yloxy)-3-fluorophenyl)-3-(4-fluorophenyl)-2,4-dioxo-1-(tetrahydro-2H-pyran-4-yl)-1,2,3,4-tetrahydropyrimidine-5-carboxamide]: the half-maximal inhibitory concentration (IC50) on c-MET, at AXL and against MER was less than 100 nM each time.

For `CN1CCN(C(C)(C)C#Cc2c(Oc3ccc(NC(=O)c4cn(C5CCOCC5)c(=O)n(-c5ccc(F)cc5)c4=O)cc3F)ccnc2N)CC1` [Example 57, N-(4-(2-amino-3-(3-methyl-3-(4-methylpiperazin-1-yl)but-1-ynyl)pyridin-4-yloxy)-3-fluorophenyl)-3-(4-fluorophenyl)-2,4-dioxo-1-(tetrahydro-2H-pyran-4-yl)-1,2,3,4-tetrahydropyrimidine-5-carboxamide], the concentration for half-maximal inhibition (IC50) against c-MET is less than 100 nM; against AXL it was less than 100 nM; against MER, less than 10 nM.

Regarding `CC(C)(C#Cc1c(Oc2ccc(NC(=O)c3cn(C4CCOCC4)c(=O)n(-c4ccc(F)cc4)c3=O)cc2F)ccnc1N)N1CCNCC1` [Example 58, N-(4-(2-amino-3-(3-methyl-3-(piperazin-1-yl)but-1-ynyl)pyridin-4-yloxy)-3-fluorophenyl)-3-(4-fluorophenyl)-2,4-dioxo-1-(tetrahydro-2H-pyran-4-yl)-1,2,3,4-tetrahydropyrimidine-5-carboxamide], the concentration for half-maximal inhibition (IC50) was less than 100 nM at c-MET, less than 100 nM on AXL and less than 10 nM at MER.

Consider `Nc1nccc(Oc2ccc(NC(=O)c3cn(C4CCOCC4)c(=O)n(-c4ccc(F)cc4)c3=O)cc2F)c1C#CCC1CCNCC1` [Example 59, N-(4-(2-amino-3-(3-(piperidin-4-yl)prop-1-ynyl)pyridin-4-yloxy)-3-fluorophenyl)-3-(4-fluorophenyl)-2,4-dioxo-1-(tetrahydro-2H-pyran-4-yl)-1,2,3,4-tetrahydropyrimidine-5-carboxamide], for which the IC50 was less than 100 nM on c-MET, less than 100 nM on AXL and less than 10 nM against MER.

A word on the IC50: it is the midpoint of a concentration-inhibition curve. Read a low IC50 as greater potency in that assay.
